Results reported in patent US8952024B2, “Herbicidal pyrimidone derivatives” (E I du Pont de Nemours and Company, priority 2009, dated 2015).

Columns and labels:
Experiment in all cases: Test B pre-/postemergence plant response
Assay type in all cases: in vivo
[1] = test system: kochia (Kochia scoparia); details: Postemergence; for Plant response rating, Kochia: scale 0 (no effect) to 100 (complete control)
Summary of the method: (§1)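 Visual ratings on a 0–100 scale (100 = complete control) were made versus untreated controls 13–15 days after treatment in a greenhouse. Compounds in surfactant-containing non-phytotoxic solvent were applied preemergence to seeds in loam–sand blend or postemergence to 1- to 4-leaf plants (2–18 cm).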

[2] = test system: yellow nutsedge (Cyperus esculentus)
Summary of the method: as §1

[3] = test system: blackgrass (Alopecurus myosuroides)
Summary of the method: as §1

[4] = test system: lambsquarters (Chenopodium album)
Summary of the method: as §1

[5] = test system: pigweed (Amaranthus retroflexus)
Summary of the method: as §1

[6] = test system: green foxtail (Setaria viridis)
Summary of the method: as §1

[7] = test system: velvetleaf (Abutilon theophrasti)
Summary of the method: as §1

[8] = test system: Italian ryegrass (Lolium multiflorum)
Summary of the method: as §1

[9] = test system: large crabgrass (Digitaria sanguinalis)
Summary of the method: as §1

[10] = test system: ragweed (common ragweed, Ambrosia elatior)
Summary of the method: as §1

[11] = test system: corn (Zea mays)
Summary of the method: as §1

[12] = test system: wild oat (Avena fatua)
Summary of the method: as §1

[13] = test system: Surinam grass (Brachiaria decumbens)
Summary of the method: as §1

[14] = test system: bermudagrass (Cynodon dactylon)
Summary of the method: as §1

[15] = test system: downy bromegrass (Bromus tectorum)
Summary of the method: as §1

[16] = test system: soybean (Glycine max)
Summary of the method: as §1

[17] = test system: cocklebur (Xanthium strumarium)
Summary of the method: as §1

[18] = 250 g ai/ha, Preemergence, 0 to 100 scale
[19] = Postemergence, 62 g ai/ha, scale 0 (no effect) to 100 (complete control), 13 to 15 days
[20] = Postemergence, 125 g ai/ha, visual rating after 13 to 15 days, scale 0 (no effect) to 100 (complete control)
[21] = Preemergence, 31 g ai/ha, scale 0 to 100 (0 no effect, 100 complete control)
[22] = Preemergence, 125 g ai/ha, 0 to 100 scale
[23] = Postemergence, 31 g ai/ha, scale 0 to 100 (0 no effect, 100 complete control)
[24] = Postemergence, 250 g ai/ha, scale 0 to 100
[25] = Preemergence, 62 g ai/ha, scale 0 to 100, 0 no effect, 100 complete control

## Cc1cc(F)ccc1-n1c(-c2ccccc2)ncc(C(=O)C2=C(O)CCCC2=O)c1=O [Compound 48]
[1]; 62 g ai/ha, 13 to 15 days
  Plant response rating, Kochia: 98
[1]; 125 g ai/ha, visual rating after 13 to 15 days
  Plant response rating, Kochia: 100
[1]; 250 g ai/ha, scale 0 to 100
  Kochia plant response rating: 100
[2]; [18]
  Plant response rating, Nutsedge, Yellow: 90
[2]; [19]
  Plant response rating, Nutsedge, Yellow: 45
[2]; [20]
  Plant response rating, Nutsedge, Yellow: 60
[2]; [21]
  Plant response rating, Nutsedge, Yellow: 20
[2]; [22]
  Nutsedge, Yellow plant response rating: 85
[3]; [18]
  Plant response rating, Blackgrass: 5
[3]; [23]
  Plant response rating, Blackgrass: 0
[3]; [19]
  Plant response rating, Blackgrass: 5
[3]; [20]
  Plant response rating, Blackgrass: 20
[3]; [24]
  Blackgrass plant response rating: 30
[3]; [21]
  Plant response rating, Blackgrass: 0
[3]; [25]
  Plant response rating, Blackgrass: 0
[3]; [22]
  Blackgrass plant response rating: 0
[4]; [18]
  Plant response rating, Lambsquarters: 100
[4]; [19]
  Plant response rating, Lambsquarters: 95
[4]; [20]
  Plant response rating, Lambsquarters: 100
[4]; [24]
  Lambsquarters plant response rating: 100
[4]; [21]
  Plant response rating, Lambsquarters: 100
[4]; [25]
  Plant response rating, Lambsquarters: 100
[4]; [22]
  Lambsquarters plant response rating: 100
[5]; [18]
  Plant response rating, Pigweed: 100
[5]; [19]
  Plant response rating, Pigweed: 85
[5]; [20]
  Plant response rating, Pigweed: 100
[5]; [21]
  Plant response rating, Pigweed: 100
[5]; [22]
  Pigweed plant response rating: 100
[6]; [18]
  Plant response rating, Foxtail, Green: 98
[6]; [23]
  Plant response rating, Foxtail, Green: 85
[6]; [19]
  Plant response rating, Foxtail, Green: 95
[6]; [20]
  Plant response rating, Foxtail, Green: 95
[6]; [24]
  Foxtail, Green plant response rating: 95
[6]; [21]
  Plant response rating, Foxtail, Green: 60
[6]; [25]
  Plant response rating, Foxtail, Green: 60
[6]; [22]
  Foxtail, Green plant response rating: 98
[7]; [18]
  Plant response rating, Velvetleaf: 100
[7]; [19]
  Plant response rating, Velvetleaf: 85
[7]; [20]
  Plant response rating, Velvetleaf: 98
[7]; [21]
  Plant response rating, Velvetleaf: 75
[7]; [22]
  Velvetleaf plant response rating: 100
[8]; [18]
  Plant response rating, Ryegrass, Italian: 0
[8]; [19]
  Plant response rating, Ryegrass, Italian: 5
[8]; [20]
  Plant response rating, Ryegrass, Italian: 30
[8]; [21]
  Plant response rating, Ryegrass, Italian: 0
[8]; [22]
  Ryegrass, Italian plant response rating: 0
[9]; [18]
  Plant response rating, Crabgrass, Large: 100
[9]; [23]
  Plant response rating, Crabgrass, Large: 85
[9]; [19]
  Plant response rating, Crabgrass, Large: 85
[9]; [20]
  Plant response rating, Crabgrass, Large: 95
[9]; [24]
  Crabgrass, Large plant response rating: 95
[9]; [21]
  Plant response rating, Crabgrass, Large: 75
[9]; [25]
  Plant response rating, Crabgrass, Large: 90
[9]; [22]
  Crabgrass, Large plant response rating: 100
[10]; [18]
  Plant response rating, Ragweed: 95
[10]; [19]
  Plant response rating, Ragweed: 85
[10]; [20]
  Plant response rating, Ragweed: 90
[10]; [21]
  Plant response rating, Ragweed: 65
[10]; [22]
  Ragweed plant response rating: 90
[11]; [18]
  Plant response rating, Corn: 0
[11]; [23]
  Plant response rating, Corn: 65
[11]; [19]
  Plant response rating, Corn: 70
[11]; [20]
  Plant response rating, Corn: 85
[11]; [24]
  Corn plant response rating: 85
[11]; [21]
  Plant response rating, Corn: 0
[11]; [25]
  Plant response rating, Corn: 0
[11]; [22]
  Corn plant response rating: 0
[12]; [18]
  Plant response rating, Oat, Wild: 15
[12]; [19]
  Plant response rating, Oat, Wild: 50
[12]; [20]
  Plant response rating, Oat, Wild: 85
[12]; [21]
  Plant response rating, Oat, Wild: 0
[12]; [22]
  Oat, Wild plant response rating: 0
[13]; [18]
  Plant response rating, Surinam Grass: 100
[13]; [19]
  Plant response rating, Surinam Grass: 85
[13]; [20]
  Plant response rating, Surinam Grass: 95
[13]; [21]
  Plant response rating, Surinam Grass: 80
[13]; [22]
  Surinam Grass plant response rating: 100
[14]; [18]
  Plant response rating, Bermudagrass: 100
[14]; [23]
  Plant response rating, Bermudagrass: 85
[14]; [19]
  Plant response rating, Bermudagrass: 95
[14]; [20]
  Plant response rating, Bermudagrass: 98
[14]; [24]
  Bermudagrass plant response rating: 100
[14]; [21]
  Plant response rating, Bermudagrass: 100
[14]; [25]
  Plant response rating, Bermudagrass: 100
[14]; [22]
  Bermudagrass plant response rating: 100
[15]; [18]
  Plant response rating, Bromegrass, Downy: 45
[15]; [23]
  Plant response rating, Bromegrass, Downy: 10
[15]; [19]
  Plant response rating, Bromegrass, Downy: 25
[15]; [20]
  Plant response rating, Bromegrass, Downy: 50
[15]; [24]
  Bromegrass, Downy plant response rating: 70
[15]; [21]
  Plant response rating, Bromegrass, Downy: 0
[15]; [25]
  Plant response rating, Bromegrass, Downy: 0
[15]; [22]
  Bromegrass, Downy plant response rating: 0
[16]; [18]
  Plant response rating, Soybean: 20
[16]; [19]
  Plant response rating, Soybean: 95
[16]; [20]
  Plant response rating, Soybean: 98
[16]; [21]
  Plant response rating, Soybean: 0
[16]; [22]
  Soybean plant response rating: 0
[17]; [18]
  Plant response rating, Cocklebur: 85
[17]; [23]
  Plant response rating, Cocklebur: 95
[17]; [19]
  Plant response rating, Cocklebur: 95
[17]; [20]
  Plant response rating, Cocklebur: 98
[17]; [24]
  Cocklebur plant response rating: 98
[17]; [25]
  Plant response rating, Cocklebur: 0
[17]; [22]
  Cocklebur plant response rating: 0
